Key:
[1] = Qualitative gelation assay in PBS; format: physicochemical; conditions: 10 mg/mL DMSO stock added to 1×PBS pH 7.4
Method: Gel formation of the teixobactin analogues was compared to that of the O-acyl isopeptide prodrugs in a qualitative gelation assay. In this experiment, a 10 mg/mL stock solution of the peptide trifluoroacetate salt in DMSO is added to 1×PBS buffer at pH 7.4 and gel formation is observed over time. Crystal violet is added to the PBS buffer to facilitate the visualization of the gels by providing contrast. […] In contrast, when the Lys10-teixobactin prodrugs are added, no immediate gel formation occurs.
Gelation assays of the O-acyl isopeptide prodrug analogues of teixobactin were performed using procedures previously reported. See K. Chen, et al., Chem. Commun. 2017, 53, 11357-11359, the disclosure of which is herein incorporated by reference.

human red blood cells = experiment: Hemolytic assay; format: cell-based
Method: The hemolytic activity of the O-acyl isopeptide prodrugs and the corresponding teixobactin analogues were evaluated with human red blood cells (FIGS. 9A to 9H). Triton X-100 and melittin were used as positive controls and vancomycin and water (vehicle) were used as negative controls in the hemolysis assays. […] In contrast, 0.002% polysorbate 80 had no effect on the hemolytic activity of Lys10-teixobactin and Leu10-teixobactin and little effect on the corresponding O-acyl isopeptide prodrug analogues. When the hemolysis assays were performed with teixobactin, no hemolysis was observed up to 100 μg/mL without polysorbate 80 and modest hemolysis (4%) at 100 μg/mL with 0.002% polysorbate 80.
Preparation of Phosphate-Buffered Saline (PBS) Buffers. A 10×PBS buffer was prepared by dissolving 8.9 g of Na2HPO4, 1.2 g KH2PO4, 40 g NaCl, and 1 g KCl in 500 mL of 18 MO deionized water. The solution was stirred until the buffer salts were completely dissolved. The pH of the 10×PBS buffer was adjusted to 7.4 using either 1 M HCl or 1 M NaOH and was subsequently sterile filtered. To create a 1×PBS buffer, the 10×PBS buffer was diluted 10-fold using 18 MO deionized water. Another 1×PBS buffer was made, supplemented with 0.002% polysorbate 80.
Preparation of human red blood cells. Whole human blood was stored in a 4° C. in K2 EDTA to prevent coagulation. On the day of cell treatment, the blood was centrifuged at 800×g for 5 min at 4° C. to isolate red blood cells (RBCs). The plasma layer was then removed and discarded. Approximately 3 mL of 150 mM NaCl solution was added to the RBCs and mixed gently by inversion. The RBCs were centrifuged at 800×g for 8 min at 4° C. and the supernatant was discarded. An additional wash with 150 mM NaCl was performed, centrifuged at 800×g for 8 min at 4° C. and the supernatant was discarded. 2 mL of whole RBCs were transferred to a 15-mL conical tube. Approximately 4 mL of 1×PBS was added to the RBCs and inverted gently to mix. The RBCs were centrifuged at 800×g for 8 min at 4° C. […]
Hemolytic assay readout. […]

[2] = test system: four Gram-positive bacteria (methicillin-susceptible and methicillin-resistant S. aureus, B. subtilis, S. epidermidis); format: cell-based
Method: The antibiotic activity of the teixobactin O-acyl isopeptide prodrugs was evaluated using minimum inhibitory concentration (MIC) assays with four Gram-positive bacteria and compared the MIC values to those of the parent teixobactin analogues. Methicillin-susceptible and methicillin-resistant S. aureus were used as representative pathogens and B. subtilis and S. epidermidis as additional Gram-positive bacteria, and E. coli was used as a Gram-negative control. The activities of the teixobactin analogues and prodrugs were compared to those of teixobactin and vancomycin.
Bacillus subtilis (ATCC 6051), Staphylococcus epidermidis (ATCC 14990), Staphylococcus aureus (ATCC 29213), and Escherichia coli(ATCC 10798) were cultured from glycerol stocks in Mueller-Hinton broth overnight in a shaking incubator at 37° C. Staphylococcus aureus (ATCC 700698) was cultured from a glycerol stock in brain heart infusion broth overnight in a shaking incubator at 37° C. An aliquot of a 1 mg/mL antibiotic stock solution in DMSO was diluted with appropriate culture media to make a 64 μg/mL solution. […] The overnight cultures of each bacterium were diluted with Mueller-Hinton broth to an OD600 of 0.075 as measured for 200 μL in a 96-well plate. […] The OD600 were measured using a 96-well UV/vis plate reader (MultiSkan GO, Thermo Scientific). […]

SMILES | gel formation immediately upon addition to PBS [1] | effect of 0.002% polysorbate 80 on hemolytic activity (human red blood cells) | MIC [2] [µg/mL] | hemolysis (human red blood cells; concentrations up to 100 μg/mL, with and without 0.002% polysorbate 80)
CC[C@H](C)[C@H](NC(=O)[C@@H](Cc1ccccc1)NC)C(=O)N[C@@H](CO)C(=O)N[C@H](CCC(N)=O)C(=O)N[C@@H](C(=O)N[C@H](C(=O)N[C@@H](CO)C(=O)N[C@H]1C(=O)N[C@@H](C)C(=O)N[C@@H](CCCNC(=N)N)C(=O)N[C@@H]([C@@H](C)CC)C(=O)O[C@H]1C)[C@@H](C)CC)[C@@H](C)CC [Arg10-teixobactin] | form gels immediately | – | – | –
CC[C@H](C)[C@H](NC(=O)[C@@H](Cc1ccccc1)NC)C(=O)N[C@@H](CO)C(=O)N[C@H](CCC(N)=O)C(=O)N[C@@H](C(=O)N[C@H](C(=O)N[C@@H](CO)C(=O)N[C@H]1C(=O)N[C@@H](C)C(=O)N[C@@H](CCCCN)C(=O)N[C@@H]([C@@H](C)CC)C(=O)O[C@H]1C)[C@@H](C)CC)[C@@H](C)CC [Lys10-teixobactin] | large gelatinous aggregates form immediately | no effect | 2 to 4 | –
CN[C@H](CC(C)C)C(=O)N[C@H]1C(=O)N[C@@H](CC(N)=O)C(=O)N[C@H]2C(=O)N[C@H]3C(=O)N[C@H](C(=O)N[C@H](C(=O)O)c4cc(O)cc(O)c4-c4cc3ccc4O)[C@H](O)c3ccc(c(Cl)c3)Oc3cc2cc(c3O[C@@H]2O[C@H](CO)[C@@H](O)[C@H](O)[C@H]2O[C@H]2C[C@](C)(N)[C@H](O)[C@H](C)O2)Oc2ccc(cc2Cl)[C@H]1O [vancomycin] | – | – | – | No hemolysis
CC[C@H](C)[C@H](NC(=O)[C@@H](Cc1ccccc1)NC)C(=O)N[C@@H](CO)C(=O)N[C@H](CCC(N)=O)C(=O)N[C@@H](C(=O)N[C@H](C(=O)N[C@@H](CO)C(=O)N[C@H]1C(=O)N[C@@H](C)C(=O)N[C@@H](CC(C)C)C(=O)N[C@@H]([C@@H](C)CC)C(=O)O[C@H]1C)[C@@H](C)CC)[C@@H](C)CC [Leu10-teixobactin] | form gels immediately | no effect | – | –
